Assay results as given in ChEMBL document CHEMBL1152802, “Discovery of novel Trypanosoma cruzi glyceraldehyde-3-phosphate dehydrogenase inhibitors” (Bioorg Med Chem, 2009).

Key:
[1] = target: Glyceraldehyde-3-phosphate dehydrogenase, glycosomal (Trypanosoma cruzi, UniProt P22513); assay: (§1) Inhibition of Trypanosoma cruzi recombinant glycosomal GAPDH expressed in Escherichia coli by spectrophotometry
[2] = test system: Trypanosoma cruzi; assay: Antitrypanosomal activity against Trypanosoma cruzi amastigote forms; assay type: functional, organism-based
[3] = test system: Ehrlich; assay: Cytotoxicity against mouse Ehrlich carcinoma cells; assay type: functional, cell-based
[4] = test system: Trypanosoma cruzi; assay: Antitrypanosomal activity against Trypanosoma cruzi amastigote forms at 841 uM; assay type: functional
[5] = test system: Leishmania amazonensis; assay: Antileishmanial activity against Leishmania amazonensis amastigote forms at 841 uM; assay type: functional
[6] = target: Glyceraldehyde-3-phosphate dehydrogenase, glycosomal (Trypanosoma cruzi) (UniProt P22513); assay: as §1; conditions: concentration not given here
Glyceraldehyde-3-phosphate dehydrogenase, glycosomal (Trypanosoma cruzi), sequence (P22513 whole entry): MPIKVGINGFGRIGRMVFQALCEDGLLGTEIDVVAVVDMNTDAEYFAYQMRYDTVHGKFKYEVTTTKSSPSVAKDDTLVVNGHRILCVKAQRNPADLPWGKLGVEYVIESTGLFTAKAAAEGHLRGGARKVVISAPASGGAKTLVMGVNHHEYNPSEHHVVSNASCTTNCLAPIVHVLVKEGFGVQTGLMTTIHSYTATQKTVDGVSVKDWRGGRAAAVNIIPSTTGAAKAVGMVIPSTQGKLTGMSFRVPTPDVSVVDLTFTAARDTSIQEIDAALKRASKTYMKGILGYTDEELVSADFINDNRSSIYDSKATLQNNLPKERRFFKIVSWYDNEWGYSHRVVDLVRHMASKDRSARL

Glyceraldehyde-3-phosphate dehydrogenase, glycosomal, sequence (P22513 whole entry): as above

Row | Structure (SMILES) | IC50 [1] | other results
1 | CCCCCC/C=C/CCCCCCCc1cccc(O)c1C(=O)O | 161 µM | –
2 | COc1cccc(C(=O)N[C@@H]2[C@H](O)[C@@H](COP(=O)(O)O)O[C@H]2n2cnc3c(NCc4cccc5ccccc45)ncnc32)c1 | 5 µM | –
3 | COc1cccc(C(=O)N[C@@H]2[C@H](O)[C@@H](CO)O[C@H]2n2cnc3c(NCc4cccc5ccccc45)ncnc32)c1 | 12 µM | –
4 | C=CC/C=C/C/C=C/CCCCCCCc1cccc(O)c1C(=O)O | 38 µM | –
5 | CCC/C=C/C/C=C/CCCCCCCc1cccc(O)c1C(=O)O | 69 µM | –
6 | COc1cc2oc(-c3cc(OC)c(OC)c(OC)c3)cc(=O)c2cc1OC | 81 µM | –
7 | CC(=O)Oc1ccc(-c2cc3cc(OC(C)=O)c(OC(C)=O)cc3oc2=O)cc1OC(C)=O | 17.8 µM | –
8 | COc1ccc(-c2coc3cc(O)c(OC)cc3c2=O)cc1 [CASTANIN] | 84 µM | –
9 | C=CC(C)(C)c1cc2cc3c(cc2oc1=O)O[C@H](C(C)(C)O)C3 [CHALEPIN] | 64 µM | –
10 | O=c1ccc2ccccc2o1 [COUMARIN] | 692 µM | –
11 | O=c1c(O[C@@H]2OC[C@H](O)[C@H](O)[C@H]2O)c(-c2ccc(O)c(O)c2)oc2cc(O)cc(O)c12 [GUAJAVERIN] | 140 µM | –
12 | O=c1c2cc(O)c(O)cc2oc2cc(O)c([C@@H]3O[C@H](CO)[C@@H](O)[C@H](O)[C@H]3O)c(O)c12 [MANGIFERIN] | 149 µM | –
13 | O=c1c(O)c(-c2ccc(O)c(O)c2)oc2cc(O)cc(O)c12 [QUERCETIN] | 142 µM | IC50 [2]: 771 µM
14 | O=C(/C=C/c1ccc(O)cc1)OC[C@H]1O[C@@H](Oc2c(-c3ccc(O)cc3)oc3cc(O)cc(O)c3c2=O)[C@H](O)[C@@H](O)[C@@H]1O [TILIROSIDE] | 46 µM | IC50 [3]: 69.5 µM; Activity [4]: 45%; Activity [5]: 67.8%
15 | O=c1ccc2ccc(O)cc2o1 [UMBELLIFERONE] | 617 µM | –
16 | C[C@H]1[C@H](C)CC[C@]2(C(=O)O)CC[C@]3(C)C(=CC[C@@H]4[C@@]5(C)CC[C@H](O)C(C)(C)[C@@H]5CC[C@]43C)[C@H]12 [URSOLIC ACID] | – | IC50 [2]: 4 µM; inhibition [6]: 25%
